Results: patent US20100260671A1, “COMPOUNDS AND METHODS FOR THE DIAGNOSIS AND TREATMENT OF AMYLOID ASSOCIATED DISEASES” (THE REGENTS OF THE UNIVERSITY OF CALIFORNIA, priority 2007, published 2010)
“Also recorded” adds a separate entry of the source. Each block holds one compound with its values, some of them ahead of it.

How the values were obtained:
[1] = biological target: Aβ fibrils (anti-Aβ IgG) (Homo sapiens, UniProt P05067); conditions: for Emax: read-out: % Max Inhib.
[2] = physchem
[3] = biological target: T1, Aβ(1-42) ion channels (Homo sapiens, UniProt P05067); test: Functional ion channel inhibition assay, planar lipid bilayer (Example 7); format: biochemical; conditions: for Rank of inhibitory effect on Aβ ion channel activity: repeated experiments; for Inhibition of de-novo Aβ ion channel formation: molar ratio to Aβ 1:1, added at the same time as 37 μM Aβ
T1 construct: Aβ(1-42) (Biopeptides) was initially dissolved in deionized water at 1 mg/ml (221.5 μM); purchased Biopeptide, Inc.
T1 sequence (P05067 672-713 limits assumed): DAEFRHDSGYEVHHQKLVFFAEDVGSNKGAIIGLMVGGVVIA
Description: Functional Ion Channel Inhibition Assays: A functional assay has been developed to investigate the inhibition of neurotoxic ion channel activity of Aβ peptides in reconstituted membrane bilayers and in aneuronal cell line by small molecules. The assay is based on ultra-sensitive electrophysiological recordings of the ion channel activity of Aβ. This ion channel-activity assay is designed to determine whether small molecules that bind to Aβ fibrils will inhibit ion channel activity. Compounds that inhibit ion channel activity are likely candidates for therapeutics and diagnostic agents for amyloid-associated diseases. This Example presents results that nicotine, tannic acid, and Congo Red are able to inhibit the ion channel activity of Aβ oligomers in planar lipid bilayers.
1. The lipid mixture was made from POPE:POPG (Avanti Polar Lipids) at 25 mg/ml (1:1) in Heptane. The pretreatment lipid solution was POPE:POPG 20 mg/mL in Hexane.
2. The bilayer was formed in classic bilayer cups and chamber (Warner Instruments). This 2-part system consists of a black Delrin chamber and a cup of Delrin. Cups and chambers are designed such that addition of equal volumes to the cup and chamber (cis and trans sides) results in a balanced solution height, minimizing any pressure gradients across the bilayer membrane.
3. The bilayer was formed over a 250 μm hole in a partition separating two Delrin compartments, the so called “painting technique.” First, droplets of pretreatment lipid solution were placed on both sides of the hole, using 100 uL-Hamilton syringe. Once the droplet of hexane evaporates, both chambers (cis and trans) were symmetrically filled with 900 uL of buffer solution, 100 mM KH2PO4/K2HPO4 pH 7.4, at room temperature.
4. When the bilayer set-up was already in place with Ag/AgCl electrodes in Faraday cage (a bilayer workstation which provides critical shielding of electromagnetic interference from outside sources and isolate vibration), the lipid solution (POPE:POPG in Heptane) was painted directly over the hole by using a thin paintbrush. A researcher gently blew underneath the hole by using the Pasteur pipette to thin out the bilayer until the appropriate capacitance was obtained (80-120 pF).
5. A voltage of ±100 mV was applied for at least 10 minutes to test stability of lipid bilayer.
Aβ(1-42) (Biopeptides) was initially dissolved in deionized water at 1 mg/ml (221.5 μM), and stored at −20° C. The stock solution is aliquotted to sufficient amount for each time use (90 uL). After the stable bilayer is constituted, the Aβ(1-42) solution was added to the trans side of the chamber to obtain a final concentration of 37 μM. The solution was mixed well in the chamber under stirring for 5 minutes
Congo Red (Sigma) was dissolved in DI Water to achieve a concentration of 2.5 mg/ml (3.58 mM) as a stock solution. (−) Nicotine Hemasulfate (Sigma) was diluted to 1.89 mM in DI Water. Tannic Acid (Riedel-de Haen) was diluted to 20 mM in DI Water.
The solution of inhibitory molecule was added to cis and trans sides to make a desired final concentration (1:1 molar ratio) at the same time as Aβ.
For Nicotine, the solution was added after observing current activities of Aβ to obtain 1:1, 1:2, 1:3, 1:4 molar ratio.

[4] = biological target: T2, Aβ(1-42) ion channel activity (Homo sapiens, UniProt P05067); test: Planar lipid bilayer Aβ ion channel assay, Method 1 (POPE:POPG, pre-incubated Aβ); format: biochemical; conditions: for membrane lasts: Method 1, incubated at 4:1 with Aβ, average of experiments
T2 construct: Aβ(1-42) (Biopeptides) was initially dissolved in deionized water at 1 mg/ml (221.5 μM); purchased Biopeptide, Inc.
T2 sequence (P05067 672-713 limits assumed): as above
Procedure: […] The Aβ sample was pre-incubated at RT for 12-18 hours. The molecules of interest can be pre-incubated with Aβ sample at various concentrations.
Bilayer set-up and recording system: Planar lipid bilayer was formed by the so-called “painting technique” over a 250-μm aperture on a Delrin cup (Warner Instruments) separating two compartments (cis and trans) of a bilayer setup. A lipid mixture of 1-palmitoyl-2-oleoyl phosphatidyletanolamine (POPE): palmitoyl-oleyl-phosphatidylglycerol (POPG) (Avanti Polar Lipids), 1:1 at 25 mg mL-1 in heptane was applied to the aperture which is pre-treated with 2 μL of the same lipid mixture (20 mg mL^−1) in hexane on each side. The recording buffer in cis compartment is 100 mM K2HPO4/KH2PO4 pH 7.4, while in the trans compartment a buffer with pre-incubated Aβ overnight was used.

[5] = Octanol/PBS partition coefficient (log P), experimental; conditions: for logP: octanol/PBS buffer
[6] = biological target: T3, Aβ(1-40) ion channel activity (Homo sapiens, UniProt P05067); test: Planar lipid bilayer Aβ ion channel assay, Method 2 (POPE:DOPS, Aβ proteoliposomes); format: biochemical; conditions: for Small molecule concentration at which no ion channel activity is observed: Method 2, added after observing events
T3 construct: Aβ(1-40) (Biopeptide, Inc.) powder was initially solubilized lyophilized in DiH2O at 1 mg/mL; purchased Biopeptide, Inc
T3 sequence (P05067 672-711 limits assumed): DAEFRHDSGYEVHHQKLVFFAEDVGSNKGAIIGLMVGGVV
Procedure: Method 2: Planar lipid bilayer was formed by the so-called “painting technique” over a 250-μm aperture on a Delrin cup (Warner Instruments) separating two compartments (cis and trans) of a bilayer setup. A lipid mixture of 1-palmitoyl-2-oleoyl phosphatidyletanolamine (POPE) (Avanti Polar Lipids) and Dioleoylphosphatidylserine (DOPS) (Avanti Polar Lipids), 1:1 at 10 mg mL-1 in heptane was applied on the aperture which is pre-treated with 2 μL of the same lipid mixture in hexane on each side. Both compartments were filled symmetrically with 800 μL of 70 mM KCl, […]. A glass pipette with a smooth bent tip was used to blow air bubble under the aperture to thin out the droplet of lipid to obtain a planar lipid bilayer (with capacitance >80 pF). Membrane stability was determined by applying ±100 mV for 10 minutes and monitoring a constant current baseline without instabilities in current. The capacitance of the membrane was monitored throughout the experiment.
Monomerization of Aβ: Aβ powder (Biopeptide, Inc.) was initially solubilized in Hexafluoroisopropanol (HFIP) at 1 mM for 21 hours in a glass vial, with 3 times of vortexing throughout the incubation period. The solution was diluted with cold nanopure water (2:1 H2O:HFIP) vortexed, fractionated in desire amounts, and immediately frozon in a CO2/acetone bath. Each fraction was covered with parafilm that was punctured twice to allow solvent vapors to escape. The fractions were lyophilized for 2 days to obtain monomerized Aβ.
Preparation of Aβ proteoliposomes: Aβ(1-40) (Biopeptide, Inc.) powder was initially solubilized lyophilized in DiH2O at 1 mg/mL and stored in −80° C. before use. 20 μL of DOPS was evaporated in CHCl3 (10 mg mL^−1) under vacuum and formed liposomes using hydration method. After obtaining a thin film of lipid, 30 μL of 1M Potassium Aspartate pH 7.2 was added, followed by 5 minutes of bath sonication. The liposome suspension was then mixed with 20 μL of Aβ (1-40) solution (1 mg/mL) and sonicated for 5 minutes.
In order to promote fusion of Aβ proteoliposomes into the bilayer, an ionic gradient of 370 mM KCl was used on the cis side (the side of proteoliposome addition) and 70 mM KCl on the trans side of the bilayer setup. 10-20 μL of the Aβ proteoliposome solution was added to the cis compartment and stirred vigorously for 5-10 minutes. The molecules of interest can be tested by addition to the chamber after observing events.

[7] = biological target: Aβ fibrils (binding of anti-Aβ IgG clone 6E10) (Homo sapiens, UniProt P05067); test: ELISA-based assay: inhibition of anti-Aβ IgG (clone 6E10) binding to Aβ fibrils; conditions: control experiments, FIG. 2 panel c
Chain of Aβ fibrils (binding of anti-Aβ IgG clone 6E10) (P05067 672-713 limits assumed): as the sequence (P05067 672-713 limits assumed) above

Chain of Aβ fibrils (anti-Aβ IgG) (P05067 672-713 limits assumed): as above

Structure (SMILES): CN1CCCC1c1cncc(Br)c1 (stereo not shown) [Compound 8, 5-Bromonicotine]
- Conc at Max Inhib. ([1]; anti-Aβ IgG-Aβ fibril binding): 700 mM
- Emax [1]: 83%
- logP [2]: 2.1 ± 0.3

Structure (SMILES): Nc1c(/N=N/c2ccc(-c3ccc(/N=N/c4cc(S(=O)(=O)O)c5ccccc5c4N)cc3)cc2)cc(S(=O)(=O)O)c2ccccc12 [Congo Red]
- Rank of inhibitory effect on Aβ ion channel activity [3]: then by Congo Red

Structure (SMILES): CN1CCCC1c1cccnc1 (single isomer, unassigned; (-)) [(−)-Nicotine]
- Time to almost complete disruption of preformed ion channels ([3]; 4-fold molar excess with respect to Aβ): ≤ 10 min
- Disruption of Aβ ion channel activity on addition at increasing concentration ([3]; added after observing Aβ current, 1:1 to 1:4 molar ratio, 37 μM Aβ): concentration-dependent disruption of Aβ ion channel activity
- Disruption of preformed Aβ ion channels ([3]; molar ratio nicotine to Aβ 4:1): disrupted preformed Aβ channels almost completely
- Inhibition of de-novo Aβ ion channel formation [3]: sufficient to inhibit the de-novo formation of Aβ ion channels; also recorded: did not result in ion channel activity during the entire test period (90 min)
- Rank of inhibitory effect on Aβ ion channel activity [3]: strongest inhibitory effect
- membrane lasts / membrane stability ([4]; Method 1, incubated at 2:1): (incubated at 2:1), unstable membrane
- Observe no ion channel activity in (experiments out of total) ([4]; Method 1, incubated at 4:1): Observe no ion channel activity in 4 out of 4
- membrane lasts [4]: (incubated at 4:1), membrane lasts ~70 minutes
- LogP expt'l ([5]; octanol/PBS): 0.20 ± 0.01
- % Max Inhib. ([1]; anti-Aβ IgG-Aβ fibril binding): 84%
- Conc at Max Inhib. ([1]; anti-Aβ IgG-Aβ fibril binding): 1,000 mM

Structure (SMILES): CN1CCC[C@H]1COC(=O)c1cncc(Br)c1 [Compound 14]
- Conc at Max Inhib. ([1]; anti-Aβ IgG-Aβ fibril binding): 50 mM
- Emax [1]: 68%

Structure (SMILES): CN1CCCC1COC(=O)c1ccccn1 (stereo not shown) [Compound 15, (s)-1-Methylpyrrolidine-2-methyl picolinate]
- logP [5]: 0.69 ± 0.08
- Conc at Max Inhib. ([1]; anti-Aβ IgG-Aβ fibril binding): 50 mM
- Emax [1]: 51%

Structure (SMILES): COc1cc(/C=C/C(=O)CC(=O)/C=C/c2ccc(O)c(OC)c2)ccc1O [Curcumin]
- Observe no ion channel activity in (experiments out of total) ([4]; Method 1, incubated at 2:1): Observe no ion channel activity in 3 out of 6
- membrane lasts / membrane stability ([4]; Method 1, incubated at 2:1): (incubated at 2:1), membrane lasts ~50 minutes

Structure (SMILES): c1cncc(C2CCCN2)c1 (stereo not shown) [Compound 7, Nornicotine]
- logP [5]: -0.93 ± 0.04
- Conc at Max Inhib. ([1]; anti-Aβ IgG-Aβ fibril binding): 700 mM
- Emax [1]: 98%

Structure (SMILES): NC[C@H](O)c1ccc(O)c(O)c1.O.O=C(O)C(O)C(O)C(=O)O [L-(−)-norepinephrine (+)-bitartrate salt monohydrate]
- Small molecule concentration at which no ion channel activity is observed [6]: Observe no ion channel activity at 50 μM small

Structure (SMILES): Cl.NCCc1ccc(O)c(O)c1 [Dopamine HCl]
- Observe no ion channel activity in (experiments out of total) ([4]; Method 1, incubated at 4:1): Observe no ion channel activity in 3 out of 4
- membrane lasts [4]: (incubated at 4:1), membrane lasts ~70 minutes

Structure (SMILES): CN1CCC[C@H]1COC(=O)c1cccnc1 [Compound 13, (s)-1-Methylpyrrolidine-2-methyl nicotinate]
- logP [5]: -0.5 ± 0.02
- Conc at Max Inhib. ([1]; anti-Aβ IgG-Aβ fibril binding): 50 mM
- Emax [1]: 54%

- Membrane observation ([6]; Method 2, 50 μM small molecule): molecule, membrane broke
Structure (SMILES): N[C@@H](Cc1ccc(O)c(O)c1)C(=O)O [L-DOPA]
- Small molecule concentration at which no ion channel activity is observed [6]: Observe no ion channel activity at 50 μM small

- Inhibition of de-novo Aβ ion channel formation [3]: inhibited ion channel activity of Aβ
Structure (SMILES): O=C(OC[C@H]1O[C@@H](OC(=O)c2cc(O)c(O)c(OC(=O)c3cc(O)c(O)c(O)c3)c2)[C@H](OC(=O)c2cc(O)c(O)c(OC(=O)c3cc(O)c(O)c(O)c3)c2)[C@@H](OC(=O)c2cc(O)c(O)c(OC(=O)c3cc(O)c(O)c(O)c3)c2)[C@@H]1OC(=O)c1cc(O)c(O)c(OC(=O)c2cc(O)c(O)c(O)c2)c1)c1cc(O)c(O)c(OC(=O)c2cc(O)c(O)c(O)c2)c1 [Tannic Acid]
- Observe no ion channel activity in (experiments out of total) ([4]; Method 1, incubated at 4:1): Observe no ion channel activity in 3 out of 5
- membrane lasts [4]: (incubated at 4:1), membrane lasts ~75 minutes

Structure (SMILES): CNCCc1ccc(O)c(O)c1.Cl [N-methyl dopamine hydrochloride]
- Small molecule concentration at which no ion channel activity is observed [6]: Observe no ion channel activity at 450 μM small

- Inhibition of the interaction between the IgGs and Aβ fibrils (control compound) [7]: No inhibition
Structure (SMILES): O=S(=O)([O-])c1ccc(O)c2ccccc12.[Na+] [1-naphthol-4-sulfonate]

Structure (SMILES): O=C([O-])c1ccccc1O.[Na+] [Salicylic Acid sodium salt]
- Observe no ion channel activity in (experiments out of total) ([4]; Method 1, incubated at 4:1): Observe no ion channel activity in 3 out of 3
- membrane lasts [4]: (incubated at 4:1), membrane lasts ~45 minutes

Structure (SMILES): OCCOCCOCCOCCN1CCCC1c1cccnc1 (stereo not shown) [Compound 10, 2-(2-(2-(2-(2-(pyridin-3yl)pyrrolidin-1-yl)ethoxy)ethoxy)ethoxy)-ethanol]
- logP [5]: -0.41 ± 0.05
- Conc at Max Inhib. ([1]; anti-Aβ IgG-Aβ fibril binding): 100 mM
- Emax [1]: 81%
